Results published in US12036226B2, “Methods of treating subjects having diabetes with chronic kidney disease” (Poxel SA, priority 2018, dated 2024).

Tested on: acute renal failure (ARF) rat model
Conditions: for plasma glucose: normal rats, 180 minutes, imeglimin and metformin 100 mg/h/kg, phenformin 50 mg/h/kg i.v.
Protocol: The creatinine level, correlated with the degree of the renal function failure, was tested for each rat 7 days after the first injection of gentamicin. […] The creatinine level was determined on the Monarch Chemistry Systems using the IL Test creatinine in rat plasma samples. This monochromatic analysis is based on the formation of a red colored complex between creatinine and picric acid under alkaline conditions.

effect on plasma lactate (rat, in vivo) | effect on plasma lactate level (rat, in vivo) | lactic acidosis (rat, in vivo) | plasma glucose after sharp fall (rat, in vivo) [mmol/L] | SMILES | plasma glucose [mmol/L] | effect on plasma [HCO3−] (rat, in vivo) | plasma H+ concentration / metabolic acidosis signs (rat, in vivo) | plasma accumulation (rat, in vivo)
significantly increased plasma lactate | significantly increased lactatemia | induced lactic acidosis | 1.9 ± 1 | CN(C)C(=N)N=C(N)N [metformin] | 4 ± 0.7 | significantly decreased plasma concentration of [HCO3^−] | increased significantly plasma H+ concentration | plasma accumulation of metformin and imeglimin was observed
significantly increased plasma lactate | significantly increased lactatemia | induced lactic acidosis | 2.4 ± 1.1 | [H]/N=C(/N)N/C(=N/[H])NCCc1ccccc1 [phenformin] | 2.9 ± 1 | significantly decreased plasma concentration of [HCO3^−] | increased significantly plasma H+ concentration | –
